From patent US20060105330A1, “Diagnostics and remedies for malignant brain tumor” (Institute of gene and brain science, priority 2002, published 2006)

System: RFX1 gene expression in human glioma U251 cells
Experiment: RFX1 gene re-expression by 5-azacytidine and trichostatin A treatment, RT-PCR
Assay type: cell-based
Conditions: single inhibitor, compared with the control, 5-azacytidine 500 nM for 3 days, trichostatin A 500 ng/ml for 24 hours
Experimental: Total RNAs derived from human glioma tissues (GB4, GB13, GB16, and GB17) and human glioma cell lines were extracted with Trizol (manufactured by GIBCO), and total RNAs of normal tissues were purchased from Clontech. cDNAs were synthesized from 10 μg of each of total RNAs using the reverse transcriptase XL (AMV) (manufactured by Takara Shuzo Co., Ltd.) in a final volume of 10 μl. PCR was performed in the system in a total volume of 25 μl, using 1 μl cDNA template and Takara Taq™ (manufactured by Takara Shuzo Co., Ltd.). […]
The resulting PCR products were electrophoresed on 2% agarose gel and analyzed by ethidium bromide staining.
Human glioma cell lines were plated at a low density, incubated for 24 hours, and then 5-azacytidine (methyltransferase inhibitor) (manufactured by Sigma Chemical Co.) was added at a final concentration of 500 nM. […] PCR was then performed and changes in gene expression were analyzed using each agent.
To investigate the relationship between reduction or loss of expression of the RFX1 and BGT-1 genes in glioma and DNA methylation or histone deacetylation, change in expression of each gene was analyzed using the RT-PCR method, either after treatment of human glioma cell lines with the methyltransferase inhibitor 5-azacytidine and the histone deacetylase inhibitor trichostatin A singly or after treatment of cells with both inhibitors.

| SMILES | change in expression of the RFX1 gene (RT-PCR) |
| --- | --- |
| Nc1ncn([C@@H]2O[C@H](CO)[C@@H](O)[C@H]2O)c(=O)n1 [5-azacytidine] | enhancement of expression |
| CC(/C=C/C(=O)NO)=C\[C@@H](C)C(=O)c1ccc(N(C)C)cc1 [trichostatin A] | enhancement of expression |
